Source: US20210308133A1, “METHODS AND COMPOSITIONS FOR INHIBITING MUSCLE WASTING” (THE BOARD OF REGENTS OF THE UNIVERSITY OF TEXAS SYSTEM, priority 2020, published 2021)

Legend:
[1] = system: LLC tumor-bearing mice; conditions: as reported previously (ref 8); cited from earlier work
[2] = system: p38α MAPK-mediated myogenic differentiation of C2C12 myoblasts; assay: myogenic differentiation of C2C12 myoblasts (MHC expression); format: cell-based, Murine; conditions: 96 hours differentiation
Source text: (§1) Western blotting. All procedures were adhered to our previous publication ^12. The following primary antibodies were used: anti-p300 (1:500, sc584, Santa Cruz), anti-C/EBPβ (1:1000, MA1-827, Thermo Fisher), anti-pT188-C/EBPβ (1:1000, 3084, Cell Signaling Technology), anti-TLR4 (1:500, sc16240, Santa Cruz), anti-p38α MAPK (1:500, sc271120, Santa Cruz), anti-p38s MAPK (1:500, 2339, Cell Signaling Technology), anti-p38 MAPK (1:1000, 9212, Cell Signaling Technology), anti-p-p38 MAPK (1:1000, 4511, Cell Signaling Technology), anti-MAFbx (1:1000, AP2041, ECM Bioscience), anti-UBR2 (1:500, NBP1-45243, Novus Biologicals), anti-LC3 (1:2000, NB100-2220, Novus Biologicals) and anti-MHC (1:1000, MAB4470, R&D Systems). Antibody against acetylated Lys-39 of C/EBPβ (1:2000) was generated as previously described ^12. […] (SEQ ID NO: 1). Data were normalized to α-Tubulin (Development Studies Hybridoma Bank at the University of Iowa, Iowa City, Iowa).

[3] = system: C2C12 myotubes; assay: LCM-induced loss of MHC and myotube mass in C2C12 myotubes; format: cell-based, Murine; conditions: 500 nM, LCM 72 hrs
Source text: as §1
Fluorescence microscopy and histology study. […] Myotube diameter was measured in MHC-stained myotubes as previously described ^12. Cross-sectional area of H&E-stained muscle sections was quantified by using the ImageJ software (NIH). Approximately 100 myofibers from each of 5 random views were quantified.

[4] = system: KPC tumor-bearing mice; assay: survival and muscle wasting of mice bearing orthotopic KPC pancreatic tumor; format: in vivo
Description: Survival of KPC tumor-bearing mice was recorded and analyzed using the Kaplan-Meier survival curve. […] Forelimb grip strength of the mice was monitored over the course of the survival study. Data were analyzed by 2-way ANOVA. * signifies a statistically significant difference (p<0.05).
At the end point, both of DMSO or nilotinib-treated KPC tumor-bearing mice were euthanized. Tumors were isolated and weighted (left panel). Net body weight was measured (right panel).
(§2) Animal use. Experimental protocols were pre-approved by the institutional Animal Welfare Committee at the University of Texas Health Science Center at Houston. LLC cells (1×10^6 in […]) were injected subcutaneously into the flanks of 8-week-old male C57B16 mice, TLR4^−/− mice in the C57BL/6 background ^17, or p38β MAPK muscle-specific knockout and p38β MAPK-floxed mice in the C57BL/6 background ^18. […] DMSO was injected accordingly as vehicle control. Plasmid encoding the p300-S12A mutant was transfected into TA muscle by electroporation on day 7 and day 14 following LLC implantation as described previously ^12. The contralateral TA was transfected with an empty vector as control. Development of cachexia was monitored by body weight and forelimb grip strength test, and usually took place within 21 days after implantation. On day 21, mice were euthanized, and muscle samples were harvested for further analyses. For survival study, orthotopic implantation of KPC cells was performed based on the procedures by Zhu et al. ^19. Briefly, a longitudinal incision was made to open the abdominal cavity for pancreas exposure. Then, 2×10^6 KPC cells suspended in 20 μl PBS were injected to the tail of pancreas.

[5] = target: p38β MAPK (Homo sapiens, UniProt Q15759); conditions: p38β MAPK vs p38α MAPK; cited from earlier work
[6] = system: UBR2; assay: LCM-induced UBR2 upregulation in C2C12 myotubes, Western blotting; format: cell-based, Murine; conditions: LCM 8 hours, concentration-dependent
Source text: as §1

[7] = system: p38 MAPK; assay: p38 MAPK activation and catabolic response in primary human myotubes treated with H1299 cell-conditioned medium; format: cell-based; conditions: 500 nM
Source text: as §1

[8] = system: LLC tumor-bearing mice; assay: muscle wasting in LLC tumor-bearing mice; format: in vivo; conditions: 0.5 mg/kg/day i.p. from day 7 for 2 weeks
Description: Mice were euthanized on day 21. The tumor was isolated and weighed, and then the net body weight was measured. Muscle samples were collected immediately for analyses of muscle wasting. […] Catabolic markers in TA muscle lysates were analyzed by Western blotting. […] Grip strength was measured on the day of euthanasia. […] H&E-stained TA cross sections were analyzed for the myofiber cross-sectional area. * signifies a statistically significant difference (p<0.05) determined by one-way ANOVA (FIGS. 5A-E) or Chi-square test (FIG. 5F).
as §2, with “Development of cachexia was monitored by body weight and forelimb grip strength test, and usually took place within 21 days after implantation.” left out
as §1
Fluorescence microscopy and histology study. C2C12 myotubes were stained with anti-MHC antibody (1:1000, MAB4470, R&D Systems) and anti-mouse Alexa Fluor® Plus 488 secondary antibody (1:200, A32723, ThermoFisher), and examined using a Zeiss Axioskop 40 microscope and a Zeiss Axiocam MRM camera system controlled by Axiovision Release 4.6 imaging software. Acquired images were edited using the Photoshop software. Myotube diameter was measured in MHC-stained myotubes as previously described ^12. Cross-sectional area of H&E-stained muscle sections was quantified by using the ImageJ software (NIH). Approximately 100 myofibers from each of 5 random views were quantified.

[9] = system: p38β MAPK-mediated activation of p300 and C/EBPβ; assay: LCM-induced p300 activation (Ser-12 phosphorylation) and C/EBPβ acetylation in C2C12 myotubes, Western blotting; format: cell-based, Murine; conditions: LCM 2 h, concentration-dependent
Description: Cell cultures. Murine C2C12 myoblasts (American Type Culture Collection, ATCC) and human skeletal myoblasts (GIBCO®) were grown in growth medium (DMEM supplemented with 10% fetal bovine serum) at 37° C. under 5% CO2. Myoblast differentiation was induced at 85% confluence with differentiation medium (DMEM supplemented with 4% heat-inactivated horse serum in) for 96 hrs. Preconditioned medium from 48-hour cultures of Lewis lung carcinoma cells (National Cancer Institute, Frederick, Md.), H1299 human lung carcinoma cells (ATCC) or KPC cells (a gift from Dr. Elizabeth Jaffee of Johns Hopkins University) 14 were collected and centrifuged (1000×g, 5 min). Conditioned medium of non-tumorigenic NL20 cells (human lung epithelial cells, ATCC) was used as control. The supernatant was used to treat myotubes (25% final volume in fresh medium) when indicated and replaced every 24 h. […] All cell lines were tested negative for mycoplasma contamination. Cell culture-based experiments were replicated independently for 3 times.
Western blotting. All procedures were adhered to our previous publication ^12. […]

[10] = humans, 24 hours after first PO administration of 50 mg; cited from earlier work

Chain of p38β MAPK (Q15759 whole entry): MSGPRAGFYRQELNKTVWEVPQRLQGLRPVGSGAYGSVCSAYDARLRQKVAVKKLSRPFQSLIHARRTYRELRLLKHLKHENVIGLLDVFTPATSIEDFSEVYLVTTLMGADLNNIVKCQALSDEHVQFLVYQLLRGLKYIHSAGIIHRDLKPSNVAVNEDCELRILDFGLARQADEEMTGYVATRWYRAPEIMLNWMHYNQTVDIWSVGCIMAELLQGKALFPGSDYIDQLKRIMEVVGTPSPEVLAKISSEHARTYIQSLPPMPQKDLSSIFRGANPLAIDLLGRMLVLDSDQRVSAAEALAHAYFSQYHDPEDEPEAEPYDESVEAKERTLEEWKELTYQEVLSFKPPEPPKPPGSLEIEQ

Oc1ccc(-c2nc(-c3ccncc3)c(-c3ccc(F)cc3)[nH]2)cc1 [SB202190]
LLC tumor-induced muscle wasting in mice [1]: attenuates | onset of myoblast differentiation (MHC expression at 24 and 48 hours) ([2]; 10 μM): delayed

Cc1cn(-c2cc(NC(=O)c3ccc(C)c(Nc4nccc(-c5cccnc5)n4)c3)cc(C(F)(F)F)c2)cn1 [nilotinib]
LCM-induced loss of myosin heavy chain (MHC) [3]: resistant | LCM-induced loss of myotube mass (myotube diameters) [3]: resistant | median survival ([4]; 0.5 mg/kg/day i.p. from day 5 until end point): 31 days | tumor volume at the end point versus DMSO ([4]; 0.5 mg/kg/day i.p., at end point): without significant difference in tumor volume | loss of muscle function measured as grip strength ([4]; 0.5 mg/kg/day i.p., over the course of the survival study): attenuated | binding affinity for p38β MAPK higher than for p38α MAPK [5]: 3 fold | MHC expression over the course of myoblast differentiation ([2]; 500 nM): did not alter MHC expression | LCM-induced upregulation of UBR2 [6]: inhibited | C/EBPβ phosphorylation on Thr-188 ([7]; 1 h): blockade | p38 MAPK activation by H1299 conditioned medium ([7]; 1 h): abrogated | upregulation of E3 ligase UBR2 ([7]; 8 h): blockade | LLC tumor growth [8]: without affecting tumor growth | activation of p300 (Ser-12 phosphorylation and Lys-39 acetylation of C/EBPβ) in TA muscle [8]: abolished | increase in autophagosome formation (LC3-II levels) [8]: blockade | loss of MHC in muscle [8]: blockade | loss of TA and EDL weight [8]: attenuated | loss of body weight [8]: protected against the loss of body weight | loss of muscle strength (grip strength) [8]: attenuated | myofiber cross-sectional area in TA [8]: preserved myofiber mass | upregulation of E3 ligases UBR2 and atroginl/MAFbx in TA muscle [8]: blockade | C/EBPβ acetylation on Lys-39 [9]: inhibited | serum concentration [10]: approximately 400 ng/ml
